Source: patent publication US9833424B2, “Application of fluoxetine to treatment of depigmentation diseases” (SHANDONG RUNZE PHARMACEUTICALS CO., LTD., priority 2011, dated 2017)

Assays:
zebrafish embryos = assay: Melanogenesis in PTU-induced zebrafish depigmentation model; assay type: in vivo; conditions: even at 1.0 μM, hour 12 to hour 60 after fertilization; especially in skin and eyes
Procedure: The zebrafish depigmentation model were obtained by treating zebrafish embryos with 1-phenyl 2-thiourea (PTU). […] Both embryos were treated in 0.2 mM (“M” stands for “mole/liter” throughout this disclosure) PTU to inhibit melanogenesis from after fertilization until the time their pictures were taken, i.e., at hour 35 and hour 60, respectively, i.e., the PTU(35) group and the PTU(60) group. […] Data expressed as mean±SD (n=40).

[1] = test system: in vitro cultured normal human skin tissue; assay: Melanin content of in vitro cultured normal human skin tissue (NaOH cracking process); assay type: cell-based; conditions: 1 μM, 48 hours
[2] = test system: normal human primary melanocytes; assay: MTT assay for measuring cell proliferation rate of human primary melanocytes; assay type: cell-based; conditions: 72 hours
[3] = test system: tyrosinase activity in normal human skin tissue; assay: Tyrosinase activity of in vitro cultured normal human skin tissue (L-DOPA); assay type: cell-based; conditions: 1-100 μM, 48 hours
[4] = test system: tyrosinase activity of B16F10 cells; assay: L-DOPA oxidation assay for measuring tyrosinase activity of B16F10 cells; assay type: cell-based, mouse
B16F10 cells [5] = assay: NaOH lysis method for determination of melanin content of B16F10 cells; assay type: cell-based, mouse
B16F10 cells [6] = assay: Western blotting of melanin synthesis proteins (MITF, TYR, TRP-1, TRP-2) in B16F10 cells; assay type: cell-based, mouse; conditions: 72 h, vs blank control
[7] = test system: tyrosinase activity of human primary melanocytes; assay: L-DOPA oxidation assay for tyrosinase activity of human primary melanocytes; assay type: cell-based
[8] = test system: normal human melanocytes (NHMCs); assay: Morphology of normal human melanocytes (NHMCs), phase-contrast microscopy; assay type: cell-based; conditions: 0.1-10 μM, 5 days, with increases in dosage
[9] = test system: TYR activity in zebrafish; assay: TYR activity in PTU(35) group zebrafish; assay type: in vivo
Procedure: The zebrafish depigmentation model were obtained by treating zebrafish embryos with 1-phenyl 2-thiourea (PTU). […] All data were expression for at least three experiments. ***P<0.001 vs control; ^#P<0.05, ^##P<0.01, ^###P<0.001 vs PTU (35 h) group. Data expressed as mean±SD (n=40).

B16F10 cells [10] = assay: Cell migration (wound healing test) and morphology, B16F10 cells; conditions: 48 hours, 0.1-10 μM
C57BL/6 mice [11] = assay: Immunohistochemistry of melanin synthesis proteins in hair follicle melanocytes of C57BL/6 mice; assay type: in vivo, mouse; conditions: 20 mg/kg gavage, 12th day, immunohistochemical staining
A375 cells = assay: Cell migration (wound healing test) and morphology, A375 cells; conditions: 48 hours, 0.1-10 μM
[12] = in vivo; cited from earlier work
C57BL/6 mice [13] = assay: Western blotting of melanin synthesis proteins in skin hair follicles of C57BL/6 mice; assay type: in vivo, mouse; conditions: 20 mg/kg gavage, 12th day
[14] = test system: human primary melanocytes; assay: NaOH lysis method for measuring melanin content of human primary melanocytes; assay type: cell-based
B16F10 cells [15] = assay: MTT assay for measuring cell proliferation rate of B16F10 cells; assay type: cell-based, mouse; conditions: 0.1 to 10 μM
C57BL/6 mice [16] = assay: Skin color on the back of hair-removed synchronized C57BL/6 mice after gavage; assay type: in vivo, mouse; conditions: 20 mg/kg gavage once a day, 12th day, vs solvent control group
[17] = test system: human primary melanocytes; assay: Western blotting of melanin synthesis proteins (MITF, TYR, TRP-1, TRP-2) in human primary melanocytes; assay type: cell-based; conditions: 72 h, vs blank control

Compound: CNCCC(Oc1ccc(C(F)(F)F)cc1)c1ccccc1 (centres unmarked) [fluoxetine, N-methyl-γ-[4-(trifluoromethyl)phenoxy] phenylpropylamine]
- melanogenesis in the PTU model zebrafish (zebrafish embryos): increased melanogenesis
- melanogenesis (melanin content) in skin tissue [1]: stimulates melanogenesis
- toxicity on human primary melanocytes [2]: relatively low toxicity
- effect on the growth of normal human primary melanocytes ([2]; vs blank control, P>0.05): no significant effect
- activity of tyrosinase in skin tissue [3]: did not exhibit any change
- tyrosinase activity of B16F10 cells ([4]; 72 hours, vs blank control, P<0.05 at 1 μM and 5 μM, P<0.01 at 10 μM): significantly promoted
- enzyme activity increase rate compared with positive drug psoralen ([4]; B16F10 cells, fluoxetine in the highest concentration): close to that of the positive drug psoralen
- melanin content of B16F10 cells (B16F10 cells [5]; 1 to 10 μM, 72 hours, vs blank control, P<0.05 at 1 μM, P<0.01 at 5 μM and 10 μM): significantly increased
- melanin content increase rate compared with positive drug psoralen (B16F10 cells [5]; B16F10 cells): exceeded that of the positive drug psoralen
- expression of protein MITF (B16F10 cells [6]): significantly improve
- expression of protein tyrosinase (TYR) (B16F10 cells [6]): significantly improve
- expression of tyrosinase-related protein 1 (TRP-1) (B16F10 cells [6]): significantly improve
- protein level of tyrosinase-related protein 2 (TRP-2) (B16F10 cells [6]): not significantly affected
- tyrosinase activity of human primary melanocytes ([7]; 72 hours, vs blank control, P<0.01): significantly promoted
- enzyme activity increase rate compared with positive drug psoralen ([7]; human primary melanocytes, fluoxetine at 5 μM and 10 μM): exceeded that of the positive drug psoralen
- dendritic morphology of NHMCs (number and length of dendrites) [8]: the number as well as the length of the primary dendritic melanocytes increase significantly
- TYR activity, dosage dependence ([9]; PTU(35) group zebrafish, 10.0 μM compared with 1.0 μM): higher TRY activity than Flx(1.0 μM)
- TYR activity in the PTU(35) group zebrafish ([9]; exposure for 48 hours (hour 12 to hour 60 after fertilization)): enhanced the TYR activity
- cell mobility (B16F10 cells [10]): may increase the mobility
- expression of tyrosinase (TYR) in hair follicle melanocytes (C57BL/6 mice [11]): significantly improve
- expression of tyrosinase-related protein 1 (TRP-1) in hair follicle melanocytes (C57BL/6 mice [11]): significantly improve
- expression of tyrosinase-related protein 2 (TRP-2) in hair follicle melanocytes (C57BL/6 mice [11]): significantly improve
- cell mobility (A375 cells): may increase the mobility
- drug excreted in the stool [12]: 15%
- drug excreted in the urine [12]: about 80%
- expression of protein MITF in skin hair follicles (C57BL/6 mice [13]): significantly improve
- expression of tyrosinase (TYR) in skin hair follicles (C57BL/6 mice [13]): significantly improve
- expression of tyrosinase-related protein 1 (TRP-1) in skin hair follicles (C57BL/6 mice [13]): significantly improve
- expression of tyrosinase-related protein 2 (TRP-2) in skin hair follicles (C57BL/6 mice [13]): significantly improve
- melanin content of human primary melanocytes ([14]; 72 hours, vs control group, P<0.01): significantly increased
- melanin content increase rate compared with positive drug psoralen ([14]; human primary melanocytes): close to or exceeded that of the positive drug psoralen
- toxicity and carcinogenesis on B16F10 melanoma cells (B16F10 cells [15]): low toxicity and low carcinogenesis
- effect on the growth of B16F10 cells (cell proliferation rate) (B16F10 cells [15]; 72 hours, vs blank control, P>0.05): no significant effect
- skin color in the hair-removed area of the skin (C57BL/6 mice [16]): significantly darkened
- expression of protein MITF [17]: significantly improve
- expression of protein tyrosinase (TYR) [17]: significantly improve
- expression of tyrosinase-related protein 1 (TRP-1) [17]: significantly improve
- protein level of tyrosinase-related protein 2 (TRP-2) [17]: not significantly affected
